Columns and labels:
Assay type in all cases: in vivo, human
[1] = test system: patient with painful rizarthrosis; test: Example 6: injection into painful joint base before surgery for rizarthrosis, postoperative pain
Protocol: A patient with painful rizarthrosis was scheduled for surgical treatment of the disease on week prior to the operation. the patient was injected with 1 ml of a physiological saline solution containing 0.9 mg capsaicin into the painful joint base without prior administration of local anesthetics. The massive pain was treated with ice packs and inter-muscular morphine.

[2] = test system: patients with symptoms of frozen shoulders; test: Example 4: intra-articular treatment before arthroscopic capsular release, pain and mobility
Protocol: A series of 3 patients with symptoms of frozen shoulders (VAS >6) for at least six month were scheduled for arthroscopic capsular release. All patients were treated with an intra-articular treatment with 2 micrograms of resiniferatoxin dissolved in 10 ml of physiological salt solution containing 4 mM Ca^2+ with immediate prior administration (2.5 and 15 minutes prior to resiniferatoxin) of a local anesthetic (5 ml 0.25% ropivacaine) at 29, 32 and 40 days preoperatively.
Thereafter pain regressed 2 weeks after injection to a level below VAS 3 in all patients. The postoperative pain treatment after capsulotomy included 5 days of regional continuous anesthesia.

[3] = test system: patients with transtendinous rotator cuff tears; test: Example 3: subacromial injection 2 to 6 weeks before arthroscopic cuff repair, postoperative pain and mobility
Protocol: A series of 5 patients with a mean age 62 years and transtendinous rotator cuff tears and having been scheduled for arthroscopic cuff repair was 2 to 6 weeks (13 days for two patients and 16,23 and 41 days for the other three patients) preoperatively treated with a subacromial injection of 0.4 microgram resiniferatoxin dissolved in 10 ml 2% lidocaine.
Postinjection pain was controlled with ice packs and NSAIDS. The postoperative pain protocol included 48 hours of interscalene continuous regional anesthesia. Thereafter pain was exceptionally low (VAS <2) in four out of five patients.

[4] = test system: patient with hip osteoarthritis; test: Example 1: intra-articular hip infiltration one month before total hip prosthesis, postoperative pain
Protocol: A patient with hip osteoarthritis and pain for 2 years was not treatable anymore with conventional pain medication (NSAIDS, Paracetamol, opioids, etc.) or infiltration (corticosteroids, hyaluronic acid). Therefore the patient was treated with an infiltration into the hip joint under fluoroscopic control with 0.8 micrograms of Resiniferatoxin dissolved in 250 microliters of Ethanol and mixed with 5 ml buffer solution.
10 minutes prior to the injection a local anesthetic (5 ml lidocaine 2%) was applied under fluoroscopic control intra-articularly to prevent injection pain. Moderate post-injection pain after RTX was controlled with oral administration of morphine. One month later the patient still suffered from relevant impairment of hip mobility and peritrochanteric pain and was treated with implantation of a total hip prosthesis.

[5] = test system: patient with anterior cruciate ligament rupture with medial meniscal tear; test: Example 2: intra-articular treatment 3 weeks before cruciate ligament and meniscal repair, postoperative pain and range of motion
Protocol: A physiotherapist suffered a traumatic anterior cruciate ligament rupture with medial meniscal tear. Due to unacceptable symptoms of instability a surgical reconstruction was scheduled. During the waiting period for the operation 3 weeks preoperatively an intra-articular treatment with 2 micrograms of resiniferatoxin dissolved in Ringers lactate buffer at a concentration of 200 ng/ml with immediate prior administration (i.e. within 1 minute) of a local anesthetic (5 ml 0.5% bupivacaine) was applied.
Three weeks later a crucial ligament repair using patellar tendon autograft and arthroscopic meniscal repair was performed. Postoperative pain was restricted to the first 72 hours and below VAS 2 thereafter. Unexpectedly the passive range of motion was flex-extension of 130-0-0° 3 weeks after the operation and further improving thereafter with minimal (VAS 1) pain.

[6] = test system: patient with symptomatic hallux valgus; test: Example 5: intra-articular injection one month before hallux valgus surgery, postoperative pain; conditions: 200 ng intra-articular one month preoperatively; 2 ml 2% Lidocaine 5 minutes prior; 1 patient
Protocol: A patient with symptomatic hallux valgus was scheduled for surgical treatment. One month preoperatively an intra articular injection 1 ml resiniferatoxin (200 ng) was administered into the interphalangeal join space with prior (5 minutes) periarticular anesthesia using 2 ml 2% Lidocaine.

Structure (SMILES): COc1cc(CNC(=O)CCCC/C=C/C(C)C)ccc1O [capsaicin]
- pain after injection ([1]; 0.9 mg in 1 ml saline without prior local anesthetics, treated with ice packs and morphine): massive pain
- postoperative pain ([1]; 0.9 mg injected on(e) week prior to the operation, 1 patient): almost no postoperative pain

Structure (SMILES): C=C(C)[C@]12C[C@@H](C)[C@@]34O[C@](Cc5ccccc5)(O[C@@H]1[C@@H]3C=C(COC(=O)Cc1ccc(O)c(OC)c1)C[C@]1(O)C(=O)C(C)=C[C@@H]41)O2 [resiniferatoxin]
- pain level (VAS) ([2]; 2 weeks after injection, before surgery, all 3 patients, 2 micrograms intra-articular with 4 mM Ca2+, 5 ml 0.25% ropivacaine prior, baseline VAS >6): < 3 VAS
- postoperative pain (VAS) ([2]; after 5 days of regional continuous anesthesia following capsulotomy, all patients): < 3 VAS
- maintenance of intraoperatively achieved mobility ([2]; after capsulotomy, all patients): able to fully maintain their intraoperatively achieved mobility
- postoperative pain (VAS) ([3]; after 48 hours of interscalene regional anesthesia, in four out of five patients, 0.4 microgram in 10 ml 2% lidocaine subacromial): < 2 VAS
- clinical signs of stiff or frozen shoulder ([3]; postoperative course up to 1 year follow up): no clinical signs corresponding to a stiff or frozen shoulder were observed
- glenohumeral abduction ([3]; six weeks postoperatively): at least 80 °
- pain upon passive external rotation ([3]; six weeks postoperatively, 5 patients): none of the patients reported pain
- passive external rotation, difference to contralateral side ([3]; six weeks postoperatively, all patients): ≤ 15 °
- post-injection pain ([4]; 0.8 micrograms intra-articular hip, 5 ml lidocaine 2% 10 minutes prior, controlled with oral morphine): Moderate
- need for per oral pain medication ([4]; after second postoperative day): did not need any further per oral pain medication
- pain reported thereafter ([4]; after second postoperative day): virtually no pain
- postoperative pain ([4]; after total hip prosthesis one month after 0.8 micrograms infiltration, 1 patient): moderate to none
- postoperative pain (VAS) ([4]; first postoperative day): 5 VAS
- postoperative pain (VAS) ([4]; second postoperative day): 2 VAS
- duration of postoperative pain ([5]; 2 micrograms intra-articular 3 weeks preoperatively, 5 ml 0.5% bupivacaine immediately prior, 1 patient): ≤ 72 h
- postoperative pain (VAS) ([5]; after the first 72 hours): < 2 VAS
- pain (VAS) ([5]; from 3 weeks after the operation, range of motion further improving): 1 VAS
- need for pain medication after surgery [6]: did not need further pain medication after the second day after surgery
